According to article PMC7144330, “2-Thiopyrimidine/chalcone hybrids: design, synthesis, ADMET prediction, and anticancer evaluation as STAT3/STAT5a inhibitors” (Journal of Enzyme Inhibition and Medicinal Chemistry, 2020):
Like-named read-outs stand apart in the source and are kept apart here.

What was measured:
[1] = system: K-562; assay: MTT cytotoxic assay, leukaemia K-562 cell line; type: cell-based
Procedure: (§1) To investigate cytotoxic activity of the final target compounds 9a–r, MTT assay was performed. Three different cell lines were used, leukaemia (K-562), breast (MCF-7) and colon (HT-29) cell lines. Cisplatin and erlotinib were the reference drugs used in this study.
(§2) All target compounds 9a–r were screened against three different cancer cell lines, leukaemia (K-562), breast (MCF-7), and colon (HT-29). MTT assay was used. Both cisplatin and erlotinib were used as the reference drugs. Cytotoxicity results are recorded in Table 1.

[2] = system: MCF-7; assay: MTT cytotoxic assay, breast MCF-7 cell line; type: cell-based, human
Procedure: as §1, §2

[3] = system: HT-29; assay: MTT cytotoxic assay, colon HT-29 cell line; type: cell-based; conditions: read-out: (IC50 μM)±SD HT-29
Procedure: as §1, §2

[4] = Homo sapiens, K562, read-out: (IC50 μM)±SD K-562
[5] = Homo sapiens, MCF7, read-out: (IC50 μM)±SD MCF-7

Row | SMILES | melting point [°C] | IC50 [1, 4] [µM] | IC50 [2, 5] [µM] | IC50 ([3]; Homo sapiens) [µM] | IC50 ([1]; read-out: (IC50 μM)±SD K-562) [µM] | IC50 ([2]; read-out: (IC50 μM)±SD MCF-7) [µM] | IC50 [3] [µM]
1 | COc1ccc(-c2cc(-c3ccc([N+](=O)[O-])cc3)nc(SCC(=O)Nc3ccc(C(=O)/C=C/c4ccc(OC)c(OC)c4)cc3)n2)cc1 [Compound 9e, (ZE)-N-{4-[3-(3,4-Dimethoxyphenyl)acryloyl]phenyl}-2-[4-(4-methoxyphenyl)-6-(4-nitrophenyl)pyrimidin-2-ylthio]-acetamide] | 225 to 227 | 7.05 ± 0.28 | 18.7 ± 0.92 | 7.31 ± 0.36 | – | – | –
2 | COc1ccc(/C=C/C(=O)c2ccc(NC(=O)CSc3nc(-c4ccc(C)cc4)cc(-c4ccc(Cl)cc4)n3)cc2)cc1 [Compound 9j, (ZE)-2-[4-(4-Chlorophenyl)-6-p-tolylpyrimidin-2-ylthio]-N-{4-[3-(4-methoxyphenyl)acryloyl]phenyl}acetamide] | 242 to 244 | 4.26 ± 0.06 | 6.26 ± 0.24 | 6.26 ± 0.34 | – | – | –
3 | COc1ccc(-c2cc(-c3ccc(OCCCl)cc3)nc(SCC(=O)Nc3ccc(C(=O)/C=C/c4cc(OC)c(OC)c(OC)c4)cc3)n2)cc1 [Compound 9i, (ZE)-2-{4-[4-(2-Chloroethoxy)phenyl]-6-(4-methoxyphenyl)pyrimidin-2-ylthio}-N-{4-[3-(3,4,5-trimethoxyphenyl)acryloyl]phenyl}acetamide] | 116 to 118 | 9.71 ± 0.41 | 11.5 ± 0.81 | 11.5 ± 0.23 | – | – | –
4 | C#Cc1cccc(Nc2ncnc3cc(OCCOC)c(OCCOC)cc23)c1 [Erlotinib, reference compound] | – | 9.85 ± 0.51 | 10.6 ± 0.58 | 9.2 ± 0.41 | – | – | –
5 | COc1ccc(/C=C/C(=O)c2ccc(NC(=O)CSc3nc(-c4ccc(OC)cc4)cc(-c4ccc(OCCCl)cc4)n3)cc2)cc1 [Compound 9g, (ZE)-2-{4-[4-(2-Chloroethoxy)phenyl]-6-(4-methoxyphenyl)pyrimidin-2-ylthio}-N-{4-[3-(4-methoxyphenyl)acryloyl]phenyl}acetamide] | 280 to 282 | 3.17 ± 0.11 | 10.4 ± 0.64 | 10.6 ± 0.47 | – | – | –
6 | N.N.[Cl][Pt][Cl] [Cisplatin, reference compound] | – | – | – | – | 2.31 ± 0.09 | 6.62 ± 0.29 | 1.12 ± 0.06
7 | COc1ccc(-c2cc(-c3ccc(C)cc3)nc(SCC(=O)Nc3ccc(C(=O)/C=C/c4ccc(OC)c(OC)c4)cc3)n2)cc1 [Compound 9b, (ZE)-N-{4-[3-(3,4-Dimethoxyphenyl)acryloyl]phenyl}-2-[4-(4-methoxyphenyl)-6-p-tolylpyrimidin-2-ylthio]acetamide] | 165 to 167 | 3.62 ± 0.08 | 22.4 ± 1.57 | 16.4 ± 0.76 | – | – | –
8 | COc1ccc(/C=C/C(=O)c2ccc(NC(=O)CSc3nc(-c4ccc(C)cc4)cc(-c4ccc(Cl)cc4)n3)cc2)cc1OC [Compound 9k, (ZE)-2-[4-(4-Chlorophenyl)-6-p-tolylpyrimidin-2-ylthio]-N-{4-[3-(3,4-dimethoxyphenyl)acryloyl]phenyl}acetamide] | 144 to 146 | 9.95 ± 0.29 | 28.7 ± 1.39 | 5.61 ± 0.18 | – | – | –
9 | COc1ccc(-c2cc(-c3ccc(OCCCl)cc3)nc(SCC(=O)Nc3ccc(C(=O)/C=C/c4ccc(OC)c(OC)c4)cc3)n2)cc1 [Compound 9h, (ZE)-2-{4-[4-(2-Chloroethoxy)phenyl]-6-(4-methoxyphenyl)pyrimidin-2-ylthio}-N-{4-[3-(3,4-dimethoxyphenyl)acryloyl]phenyl}acetamide] | 135 to 137 | 7.07 ± 0.31 | 7.7 ± 0.32 | 18.8 ± 0.88 | – | – | –
10 | COc1ccc(-c2cc(-c3ccc(C)cc3)nc(SCC(=O)Nc3ccc(C(=O)/C=C/c4cc(OC)c(OC)c(OC)c4)cc3)n2)cc1 [Compound 9c, (ZE)-2-[4-(4-Methoxyphenyl)-6-p-tolylpyrimidin-2-ylthio]-N-{4-[3-(3,4,5-trimethoxyphenyl)acryloyl]phenyl}acetamide] | 195 to 197 | 11.42 ± 0.04 | 4.25 ± 0.13 | 8.7 ± 0.28 | – | – | –

Now from value to compound, other results behind:

Row | melting point [°C] | SMILES | IC50 [1, 4] [µM] | IC50 [2, 5] [µM] | IC50 ([3]; Homo sapiens) [µM] | IC50 ([1]; read-out: (IC50 μM)±SD K-562) [µM] | IC50 ([2]; read-out: (IC50 μM)±SD MCF-7) [µM] | IC50 [3] [µM]
11 | 190 to 192 | COc1ccc(/C=C/C(=O)c2ccc(NC(=O)CSc3nc(-c4ccc(Cl)cc4)cc(-c4ccc([N+](=O)[O-])cc4)n3)cc2)cc1 [Compound 9m, (ZE)-2-[4-(4-Chlorophenyl)-6-(4-nitrophenyl)pyrimidin-2-ylthio]-N-{4-[3-(4-methoxyphenyl)acryloyl]phenyl}acetamide] | 3.86 ± 0.14 | 3.9 ± 0.09 | 7.9 ± 0.22 | – | – | –
12 | 210 to 212 | COc1ccc(/C=C/C(=O)c2ccc(NC(=O)CSc3nc(-c4ccc(Cl)cc4)cc(-c4ccc(OCCCl)cc4)n3)cc2)cc1OC [Compound 9q] | 5.77 ± 0.16 | 6.81 ± 0.25 | 6.06 ± 0.29 | – | – | –
13 | 268 to 270 | COc1cc(/C=C/C(=O)c2ccc(NC(=O)CSc3nc(-c4ccc(Cl)cc4)cc(-c4ccc([N+](=O)[O-])cc4)n3)cc2)cc(OC)c1OC [Compound 9o, (ZE)-2-[4-(4-Chlorophenyl)-6-(4-nitrophenyl)pyrimidin-2-ylthio]-N-{4-[3-(3,4,5-trimethoxyphenyl)acryloyl]phenyl}acetamide] | 12.3 ± 0.72 | 3.62 ± 0.084 | 3.62 ± 0.08 | – | – | –
14 | 136 to 138 | COc1ccc(/C=C/C(=O)c2ccc(NC(=O)CSc3nc(-c4ccc(Cl)cc4)cc(-c4ccc(OCCCl)cc4)n3)cc2)cc1 [Compound 9p] | 1.74 ± 0.04 | 11.6 ± 0.49 | 11.6 ± 0.63 | – | – | –
15 | 234 to 236 | COc1cc(/C=C/C(=O)c2ccc(NC(=O)CSc3nc(-c4ccc(C)cc4)cc(-c4ccc(Cl)cc4)n3)cc2)cc(OC)c1OC [Compound 9l, (ZE)-2-[4-(4-Chlorophenyl)-6-p-tolylpyrimidin-2-ylthio]-N-{4-[3-(3,4,5-trimethoxyphenyl)acryloyl]phenyl}acetamide] | 42.6 ± 1.99 | 13.5 ± 0.62 | 2.37 ± 0.07 | – | – | –
